Laboratory results taken from patent publication US7150974B1, “Parathyroid hormone receptor binding method” (The General Hospital Corporation, priority 1991, dated 2006).
Entries after “also recorded” stand apart in the source; their conditions may differ.

Columns and labels:
[1] = target: T1, human kidney PTH/PTHrP receptor (Homo sapiens, UniProt Q03431, L389Q); test: Radioreceptor assay, COS-7 cells transiently expressing human kidney PTH/PTHrP receptor (HKrk); assay type: binding
T1 construct: The full-length human kidney PTH/PTHrP receptor cDNA, HKrk, was constructed using the BamHI/PvuII fragment of PCR clone #2 and HK-2; expressed in transfected cells; host or cells: COS-7 cells, transient (DEAE/Dextran), pcDNAI
T1 sequence (Q03431 27-593 L389Q): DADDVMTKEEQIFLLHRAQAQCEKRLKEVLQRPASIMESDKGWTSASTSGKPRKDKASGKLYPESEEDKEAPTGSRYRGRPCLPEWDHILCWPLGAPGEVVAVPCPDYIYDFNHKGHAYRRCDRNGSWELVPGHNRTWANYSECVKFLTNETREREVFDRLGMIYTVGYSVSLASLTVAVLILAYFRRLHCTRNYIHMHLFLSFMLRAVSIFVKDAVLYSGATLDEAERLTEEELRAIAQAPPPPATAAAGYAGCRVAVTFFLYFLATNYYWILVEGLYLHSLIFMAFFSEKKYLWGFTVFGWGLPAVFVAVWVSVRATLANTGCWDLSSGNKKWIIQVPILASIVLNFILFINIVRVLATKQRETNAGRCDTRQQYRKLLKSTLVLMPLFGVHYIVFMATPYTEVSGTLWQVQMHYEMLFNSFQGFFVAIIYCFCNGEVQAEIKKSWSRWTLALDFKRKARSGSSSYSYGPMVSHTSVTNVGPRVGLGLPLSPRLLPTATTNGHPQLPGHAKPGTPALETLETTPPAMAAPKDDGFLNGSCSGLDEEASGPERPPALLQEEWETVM
Experimental: In brief, the labeled peptide was dissolved in 0.1% trifluoracetic acid (TFA), applied to a C18 Sep-pak cartridge (Waters Associates, Inc., Milford, Mass.) and eluted with a solution of 60% acetonitrile in 0.1% TFA. After lyophilization, the radioligand then was applied to C18-μBondapak column (3.9 mm×30 cm. Waters Associates) and eluted over 30 min with a linear gradient of 30-50% acetonitrile-0.1% TFA at a flow rate of 2 ml/min.
COS-7 cells were grown in 15 cm plates in DMEM, 10% heat-inactivated […], 10 mg/L gentamycin until 80-90% confluent. Twenty-four hours after transfection by the DEAE/Dextran method (Sambrook et al., supra), with 1-2 μg of plasmid DNA, the cells were trypsinized and replated in multiwell plastic dishes (16 or 35 mm diameter, Costar, Cambridge, Mass.) at a cell concentration of 5×10^4 cells/cm^2). […] After continuing culture for another 48 h, radiorecepter assays were performed. The culture medium was replaced with buffer containing 50 mM Tris-HCL (pH 7.7), 100 mM NaCl, 2 mM CaCl2, 5 mM KCL, 0.5% heat-inactivated fetal bovine serum (GIBCO), and 5% heat-inactivated horse serum (KC Biological Inc., Lenexa, Kans.) immediately before studies were initiated.
Incubations were terminated by aspirating the buffer, and repeatedly (×3) washing the culture dishes, containing the adherent cells with chilled 0.9% NaCl solution, over a 15 sec period. Cell-bound radioactivity was recovered by the sequential addition (×3) of 1 N NaOH (200 μl) to each well. After 30 min at room temperature, the NaOH was transferred to a glass tube. A second and third extraction with 1 N NaOH (200 μl) were combined with the first, and the total radioactivity was counted in a γ-spectrometer (Packard Instruments, Downers Grove, Ill.).

[2] = target: T2, opossum kidney PTH/PTHrP receptor clone, OK-H (Didelphis virginiana, UniProt P25107, I132F/S86P); test: Inositol phosphate metabolism, COS cells expressing OK-H; assay type: cell-based; settings: FIG. 15, listed as NlePTH
T2 construct: expressed in transfected cells; host or cells: COS cells, transient, plasmid OK-H (pcDNA I)
T2 sequence (P25107 other isoform, or with tags, fused parts or gaps S86P/I132F): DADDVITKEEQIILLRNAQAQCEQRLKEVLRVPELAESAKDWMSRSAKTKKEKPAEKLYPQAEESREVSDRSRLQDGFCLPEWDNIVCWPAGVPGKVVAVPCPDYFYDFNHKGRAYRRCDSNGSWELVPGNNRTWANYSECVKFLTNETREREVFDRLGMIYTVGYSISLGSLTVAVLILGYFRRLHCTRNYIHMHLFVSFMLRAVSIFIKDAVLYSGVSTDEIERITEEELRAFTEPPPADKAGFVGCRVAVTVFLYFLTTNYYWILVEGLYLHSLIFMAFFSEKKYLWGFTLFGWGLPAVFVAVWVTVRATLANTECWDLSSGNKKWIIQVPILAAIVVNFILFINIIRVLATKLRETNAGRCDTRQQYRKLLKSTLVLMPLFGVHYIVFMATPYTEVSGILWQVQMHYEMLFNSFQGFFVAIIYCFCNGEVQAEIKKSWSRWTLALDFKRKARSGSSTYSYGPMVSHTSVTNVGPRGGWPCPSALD

In the case of [Nle^8,18, Tyr^34]bPTH(1-34)amide, the “fold higher apparent Kd, human versus rat bone PTH/PTHrP receptor” value ([1]; human versus rat receptor) is reported as 2 fold, the “specific binding of radiolabelled ligand” value ([1]; radiolabelled ligand ~200,000 cpm, COS-7 cells transfected with cloned human PTH/PTHrP receptor) is reported as 10.1±3.7% and the “inositol phosphate metabolism (IP3 and IP2 accumulation)” value [2] is reported as “do not show a detectable increase; also recorded: did not show any detectable increase”.
